Experimental data from PubChem BioAssay (NCI).
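Five compound concentrations were applied to cells in 96-well plates for 48 hours; endpoints were derived by simple linear interpolation of the resulting dose-response curve. Definition used: TGI = concentration required for complete inhibition of growth.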

Key:
Experiment in all cases: DTP human tumour cell line panel, 48 h
786-0 renal = test system: 786-0 renal
A498 renal = test system: A498 renal
A549 NSCLC = test system: A549 NSCLC
ACHN renal = test system: ACHN renal
CAKI-1 renal = test system: CAKI-1 renal
CCRF-CEM leukemia = test system: CCRF-CEM leukemia
COLO 205 colon = test system: COLO 205 colon
DLD-1 colon = test system: DLD-1 colon
DMS 114 small cell lung = test system: DMS 114 small cell lung
DMS 273 small cell lung = test system: DMS 273 small cell lung
EKVX NSCLC = test system: EKVX NSCLC
HCC-2998 colon = test system: HCC-2998 colon
HCT-116 colon = test system: HCT-116 colon
HCT-15 colon = test system: HCT-15 colon
HL-60(TB) leukemia = test system: HL-60(TB) leukemia
HOP-62 NSCLC = test system: HOP-62 NSCLC
HOP-92 NSCLC = test system: HOP-92 NSCLC
HT29 colon = test system: HT29 colon
IGROV1 ovarian = test system: IGROV1 ovarian
K-562 leukemia = test system: K-562 leukemia
KM12 colon = test system: KM12 colon
KM20L2 colon = test system: KM20L2 colon
LOX IMVI melanoma = test system: LOX IMVI melanoma
LXFL 529 NSCLC = test system: LXFL 529 NSCLC
M14 melanoma = test system: M14 melanoma
M19-MEL melanoma = test system: M19-MEL melanoma
MALME-3M melanoma = test system: MALME-3M melanoma
MOLT-4 leukemia = test system: MOLT-4 leukemia
NCI-H23 lung = test system: NCI-H23 lung
NCI-H460 lung = test system: NCI-H460 lung
NCI-H522 lung = test system: NCI-H522 lung
OVCAR-3 ovarian = test system: OVCAR-3 ovarian
OVCAR-4 ovarian = test system: OVCAR-4 ovarian
OVCAR-5 ovarian = test system: OVCAR-5 ovarian
OVCAR-8 ovarian = test system: OVCAR-8 ovarian
RPMI-8226 leukemia = test system: RPMI-8226 leukemia
RXF 393 renal = test system: RXF 393 renal
SF-268 CNS = test system: SF-268 CNS
SF-295 CNS = test system: SF-295 CNS
SK-MEL-2 melanoma = test system: SK-MEL-2 melanoma
SK-MEL-28 melanoma = test system: SK-MEL-28 melanoma
SK-MEL-5 melanoma = test system: SK-MEL-5 melanoma
SK-OV-3 ovarian = test system: SK-OV-3 ovarian
SN12C renal = test system: SN12C renal
SNB-19 CNS = test system: SNB-19 CNS
SNB-75 CNS = test system: SNB-75 CNS
SR leukemia = test system: SR leukemia
SW-620 colon = test system: SW-620 colon
TK-10 renal = test system: TK-10 renal
U251 CNS = test system: U251 CNS
UACC-257 melanoma = test system: UACC-257 melanoma
UACC-62 melanoma = test system: UACC-62 melanoma
UO-31 renal = test system: UO-31 renal
XF 498 CNS = test system: XF 498 CNS
HOP-18 NSCLC = test system: HOP-18 NSCLC
SF-539 CNS = test system: SF-539 CNS
SNB-78 CNS = test system: SNB-78 CNS

**Q.** What does the source list for O=C1Oc2cc3c(c4cccc1c24)OCN(c1ccccc1)C3?
**A.** TGI (786-0 renal): > 100 µM; TGI (A498 renal): > 100 µM; TGI (A549 NSCLC): > 100 µM; TGI (ACHN renal): > 100 µM; TGI (CAKI-1 renal): > 100 µM; TGI (CCRF-CEM leukemia): 86.2 µM; TGI (COLO 205 colon): > 100 µM; TGI (DLD-1 colon): > 100 µM; TGI (DMS 114 small cell lung): > 100 µM; TGI (DMS 273 small cell lung): > 100 µM; TGI (EKVX NSCLC): > 100 µM; TGI (HCC-2998 colon): > 100 µM; TGI (HCT-116 colon): > 100 µM; TGI (HCT-15 colon): > 100 µM; TGI (HL-60(TB) leukemia): > 100 µM; TGI (HOP-62 NSCLC): > 100 µM; TGI (HOP-92 NSCLC): > 100 µM; TGI (HT29 colon): > 100 µM; TGI (IGROV1 ovarian): > 100 µM; TGI (K-562 leukemia): 63 µM; TGI (KM12 colon): > 100 µM; TGI (KM20L2 colon): > 100 µM; TGI (LOX IMVI melanoma): > 100 µM; TGI (LXFL 529 NSCLC): > 100 µM; TGI (M14 melanoma): > 100 µM; TGI (M19-MEL melanoma): > 100 µM; TGI (MALME-3M melanoma): > 100 µM; TGI (MOLT-4 leukemia): > 100 µM; TGI (NCI-H23 lung): > 100 µM; TGI (NCI-H460 lung): > 100 µM; TGI (NCI-H522 lung): 56.9 µM; TGI (OVCAR-3 ovarian): > 100 µM; TGI (OVCAR-4 ovarian): > 100 µM; TGI (OVCAR-5 ovarian): > 100 µM; TGI (OVCAR-8 ovarian): > 100 µM; TGI (RPMI-8226 leukemia): > 100 µM; TGI (RXF 393 renal): > 100 µM; TGI (SF-268 CNS): > 100 µM; TGI (SF-295 CNS): > 100 µM; TGI (SK-MEL-2 melanoma): > 100 µM; TGI (SK-MEL-28 melanoma): > 100 µM; TGI (SK-MEL-5 melanoma): > 100 µM; TGI (SK-OV-3 ovarian): > 100 µM; TGI (SN12C renal): > 100 µM; TGI (SNB-19 CNS): > 100 µM; TGI (SNB-75 CNS): > 100 µM; TGI (SR leukemia): > 100 µM; TGI (SW-620 colon): > 100 µM; TGI (TK-10 renal): > 100 µM; TGI (U251 CNS): > 100 µM; TGI (UACC-257 melanoma): > 100 µM; TGI (UACC-62 melanoma): > 100 µM; TGI (UO-31 renal): > 100 µM; TGI (XF 498 CNS): > 100 µM

**Q.** For O=C(O)CCC1CCc2cccc(OCC(=O)O)c2C1=O (stereo not drawn), which TGI (786-0 renal) is on record?
**A.** > 100 µM

**Q.** What about the TGI (A498 renal) of the same compound?
**A.** > 100 µM

**Q.** What about the TGI (A549 NSCLC) of the same compound?
**A.** > 100 µM

**Q.** What about the TGI (ACHN renal) of the same compound?
**A.** > 100 µM

**Q.** And the TGI (CAKI-1 renal)?
**A.** > 100 µM

**Q.** And the TGI (CCRF-CEM leukemia)?
**A.** > 100 µM

**Q.** And the TGI (COLO 205 colon)?
**A.** > 100 µM

**Q.** What about the TGI (DLD-1 colon) of the same compound?
**A.** > 100 µM

**Q.** And the TGI (DMS 114 small cell lung)?
**A.** > 100 µM

**Q.** What about the TGI (DMS 273 small cell lung) of the same compound?
**A.** > 100 µM

**Q.** And the TGI (EKVX NSCLC)?
**A.** > 100 µM

**Q.** What about the TGI (HCC-2998 colon) of the same compound?
**A.** > 100 µM

**Q.** What about the TGI (HCT-116 colon) of the same compound?
**A.** > 100 µM

**Q.** And the TGI (HCT-15 colon)?
**A.** > 100 µM

**Q.** What about the TGI (HL-60(TB) leukemia) of the same compound?
**A.** > 100 µM

**Q.** What about the TGI (HOP-18 NSCLC) of the same compound?
**A.** > 100 µM

**Q.** What about the TGI (HOP-62 NSCLC) of the same compound?
**A.** > 100 µM

**Q.** What about the TGI (HOP-92 NSCLC) of the same compound?
**A.** > 100 µM

**Q.** And the TGI (HT29 colon)?
**A.** > 100 µM

**Q.** What about the TGI (IGROV1 ovarian) of the same compound?
**A.** > 100 µM

**Q.** What about the TGI (K-562 leukemia) of the same compound?
**A.** > 100 µM

**Q.** What about the TGI (KM20L2 colon) of the same compound?
**A.** > 100 µM

**Q.** What about the TGI (LOX IMVI melanoma) of the same compound?
**A.** > 100 µM

**Q.** And the TGI (LXFL 529 NSCLC)?
**A.** > 100 µM

**Q.** And the TGI (M14 melanoma)?
**A.** > 100 µM

**Q.** What about the TGI (M19-MEL melanoma) of the same compound?
**A.** > 100 µM

**Q.** And the TGI (MOLT-4 leukemia)?
**A.** > 100 µM

**Q.** What about the TGI (NCI-H23 lung) of the same compound?
**A.** > 100 µM

**Q.** And the TGI (NCI-H460 lung)?
**A.** > 100 µM

**Q.** And the TGI (OVCAR-3 ovarian)?
**A.** > 100 µM

**Q.** And the TGI (OVCAR-4 ovarian)?
**A.** > 100 µM

**Q.** And the TGI (OVCAR-8 ovarian)?
**A.** > 100 µM

**Q.** What about the TGI (RPMI-8226 leukemia) of the same compound?
**A.** > 100 µM

**Q.** And the TGI (RXF 393 renal)?
**A.** > 100 µM

**Q.** What about the TGI (SF-295 CNS) of the same compound?
**A.** > 100 µM

**Q.** What about the TGI (SF-539 CNS) of the same compound?
**A.** > 100 µM

**Q.** And the TGI (SK-MEL-28 melanoma)?
**A.** > 100 µM

**Q.** And the TGI (SK-MEL-5 melanoma)?
**A.** > 100 µM

**Q.** What about the TGI (SK-OV-3 ovarian) of the same compound?
**A.** > 100 µM

**Q.** And the TGI (SN12C renal)?
**A.** > 100 µM

**Q.** And the TGI (SNB-19 CNS)?
**A.** > 100 µM

**Q.** And the TGI (SNB-75 CNS)?
**A.** > 100 µM

**Q.** What about the TGI (SNB-78 CNS) of the same compound?
**A.** > 100 µM

**Q.** And the TGI (SW-620 colon)?
**A.** > 100 µM

**Q.** What about the TGI (TK-10 renal) of the same compound?
**A.** > 100 µM

**Q.** And the TGI (U251 CNS)?
**A.** > 100 µM

**Q.** And the TGI (UACC-257 melanoma)?
**A.** > 100 µM

**Q.** And the TGI (UACC-62 melanoma)?
**A.** > 100 µM

**Q.** What about the TGI (XF 498 CNS) of the same compound?
**A.** > 100 µM
